Data taken from US11566057B2, “Long-acting co-agonists of the glucagon and GLP-1 receptors” (Merck Sharp & Dohme Corp., priority 2017, dated 2023).
Numbered stars: 1 amine (or outer) side, 2 acyl side, 3 side chain; on linkers, the order of the positions; unused ones are H or OH. Square brackets hold non-standard residues; d marks the D form. Side chains are listed from the residue outwards. Peptide text beside a SMILES is read from it. * marks the point of attachment. C20 diacid = O=C(O)CCCCCCCCCCCCCCCCCCC(=O)*; Phe(4-CH2NH2) = NCc1ccc(C[C@H](N)C(=O)O)cc1; C18 diacid = O=C(O)CCCCCCCCCCCCCCCCC(=O)*; αMeW = C[C@](N)(Cc1c[nH]c2ccccc12)C(=O)O; C16 diacid = O=C(O)CCCCCCCCCCCCCCC(=O)*; γGlu = O=C(O)[C@H](CCC(=O)[*:2])N[*:1]; Met(O2) = CS(=O)(=O)CC[C@H](N)C(=O)O; PEG5 = NCCOCCOCCOCCOCCOCCC(=O)O; αMeD = C[C@](N)(CC(=O)O)C(=O)O; AEEA = NCCOCCOCC(=O)O; Aib = CC(C)(N)C(=O)O

Biological target: T1, human GCGR (Homo sapiens, UniProt P47871)
T1 construct: expressed in transfected cells; growth medium holds Blasticidin and Hygromycin
T1 sequence (P47871 26-477): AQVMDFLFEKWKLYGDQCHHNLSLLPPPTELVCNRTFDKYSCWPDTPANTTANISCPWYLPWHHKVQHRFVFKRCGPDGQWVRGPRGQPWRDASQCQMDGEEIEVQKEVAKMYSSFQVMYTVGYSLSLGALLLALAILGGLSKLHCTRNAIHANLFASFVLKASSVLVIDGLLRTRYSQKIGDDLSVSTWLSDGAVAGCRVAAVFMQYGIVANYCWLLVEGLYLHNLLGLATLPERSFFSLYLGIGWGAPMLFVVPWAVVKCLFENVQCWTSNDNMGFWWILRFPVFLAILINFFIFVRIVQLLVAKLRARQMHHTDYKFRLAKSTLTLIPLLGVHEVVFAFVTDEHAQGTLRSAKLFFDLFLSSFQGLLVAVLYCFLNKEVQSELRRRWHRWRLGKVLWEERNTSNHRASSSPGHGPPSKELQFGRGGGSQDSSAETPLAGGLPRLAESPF
Experiment: cAMP activity assay at the Glucagon receptor (GCGR)
Type: cell-based
Conditions: cells expressing human GCGR, cAMP production; buffer with or without 20% human serum (not stated which); read-out: GCGR EC50 human
Protocol: Activity of the peptides at the Glucagon receptor (GCGR) and GLP-1 receptor (GLP1R) was measured in a cAMP activity assay.
GCG/GLP-1 receptor co-agonist peptides were dissolved in 100% DMSO (dimethyl sulfoxide) and serially diluted to generate 10 point titrations. The peptide solutions were then transferred into 384-well assay plates (150 nL/well). Assay ready frozen cells expressing human GLP1R or human GCGR were suspended in growth media consisting of DMEM medium (GIBCO®), 10% FBS (GIBCO®), 1×NEAA(GIBCO®), 1×P/S (GIBCO®), 10 ug/mL Blasticidin (GIBCO®) and 200 μg/mL Hygromycin (GIBCO®). […] The cell suspensions (15 μL) were then added to the assay plates containing the peptide solutions (30,000 cells/well for human GCGR; 10,000 cells/well for human GLP1R). The cells were incubated for 1 hour at room temperature in the dark. Production of cAMP was determined using HitHunter™ cAMPXS kits (DiscoverX) following manufacturer protocol. The plates were incubated for overnight at room temperature in the dark. Luminescence was measured using an EnVision Multilabel plate reader (Perkin Elmer). Native GLP-1 and Glucagon (Bachem) are used as control peptides. EC50 values were calculated using uses a 4 parameter logistic fit based on the Levenberg-Marquardt algorithm.

Row | EC50 | Compound
1 | 0.86 nM | CC(C)C[C@H](NC(=O)[C@H](Cc1ccc(O)cc1)NC(=O)[C@H](CCCCN)NC(=O)[C@H](CO)NC(=O)[C@H](Cc1ccc(O)cc1)NC(=O)[C@H](CC(=O)O)NC(=O)[C@H](CO)NC(=O)[C@@H](NC(=O)[C@H](Cc1ccccc1)NC(=O)[C@@H](NC(=O)CNC(=O)[C@H](CCC(N)=O)NC(=O)C(C)(C)NC(=O)[C@@H](N)Cc1c[nH]cn1)[C@@H](C)O)[C@@H](C)O)C(=O)N[C@@H](CC(=O)O)C(=O)N[C@@H](C)C(=O)N[C@@H](CCCNC(=N)N)C(=O)N[C@@H](C)C(=O)N[C@@H](C)C(=O)N[C@@H](CCCCNC(=O)COCCOCCNC(=O)CC[C@H](NC(=O)CCCCCCCCCCCCCCCCC(=O)O)C(=O)O)C(=O)N[C@@H](CC(=O)O)C(=O)N[C@@H](Cc1ccccc1)C(=O)N[C@H](C(=O)N[C@@H](CCC(N)=O)C(=O)N[C@@H](Cc1c[nH]c2ccccc12)C(=O)N[C@@H](CC(C)C)C(=O)N[C@@H](CCS(C)(=O)=O)C(=O)N[C@@](C)(CC(=O)O)C(=O)N[C@H](C(N)=O)[C@@H](C)O)C(C)C [TP628] (H-H[Aib]QGTFTSDYSKYLDARAAK([AEEA-γGlu-C18 diacid])DFVQWL[Met(O2)][αMeD]T-NH2; N-terminus assumed)

Same assay, conditions: ratio of GCGR EC50 to GLP1R EC50

Row | hGCGR/hGLP1R (hTone) | Compound
2 | 0.64 | HsQGTFTSDNle(1,2,3-triazole-4-γE-C16)SKYLDARAAQDFVQWLLDT-NH2 (HXQGTFTSDXSKYLDARAAQDFVQWLLDT; D-Ser, Nle-triazole-γE-C16 lipid; C-terminal amide; peptide TP830; (2)..(2) Xaa is D-Serine; (10)..(10) Xaa is Nle(1,2,3-triazole-4-gammaGlu-C16); (29)..(29) Xaa is C-terminal amide)
3 | 1.56 | CCCCCCCCCCCCCCCc1cn(CCCC[C@H](NC(=O)[C@H](CC(=O)O)NC(=O)[C@H](CO)NC(=O)[C@@H](NC(=O)[C@H](Cc2ccccc2)NC(=O)[C@@H](NC(=O)CNC(=O)[C@H](CCC(N)=O)NC(=O)[C@@H](CO)NC(=O)[C@@H](N)Cc2c[nH]cn2)[C@@H](C)O)[C@@H](C)O)C(=O)N[C@@H](CO)C(=O)N[C@@H](CCCCN)C(=O)N[C@@H](Cc2ccc(O)cc2)C(=O)N[C@@H](CC(C)C)C(=O)N[C@@H](CC(=O)O)C(=O)N[C@@H](C)C(=O)N[C@@H](CCCNC(=N)N)C(=O)N[C@@H](C)C(=O)N[C@@H](C)C(=O)N[C@@H](CCC(N)=O)C(=O)N[C@@H](CC(=O)O)C(=O)N[C@@H](Cc2ccccc2)C(=O)N[C@H](C(=O)N[C@@H](CCC(N)=O)C(=O)N[C@@H](Cc2c[nH]c3ccccc23)C(=O)N[C@@H](CC(C)C)C(=O)N[C@@H](CC(C)C)C(=O)N[C@@H](CC(=O)O)C(=O)N[C@H](C(N)=O)[C@@H](C)O)C(C)C)nn1 [TP829]
4 | 2.4 | CC(C)C[C@H](NC(=O)[C@H](Cc1ccc(O)cc1)NC(=O)[C@H](CCCCN)NC(=O)[C@H](CO)NC(=O)[C@H](Cc1ccc(O)cc1)NC(=O)[C@H](CC(=O)O)NC(=O)[C@H](CO)NC(=O)[C@@H](NC(=O)[C@H](Cc1ccccc1)NC(=O)[C@@H](NC(=O)CNC(=O)[C@H](CCC(N)=O)NC(=O)C(C)(C)NC(=O)[C@@H](N)Cc1c[nH]cn1)[C@@H](C)O)[C@@H](C)O)C(=O)N[C@@H](CC(=O)O)C(=O)N[C@@H](C)C(=O)N[C@@H](CCCNC(=N)N)C(=O)N[C@@H](C)C(=O)N[C@@H](C)C(=O)N[C@@H](CCCCNC(=O)COCCOCCNC(=O)COCCOCCNC(=O)CC[C@H](NC(=O)CCCCCCCCCCCCCCCCCCC(=O)O)C(=O)O)C(=O)N[C@@H](CC(=O)O)C(=O)N[C@@H](Cc1ccccc1)C(=O)N[C@H](C(=O)N[C@@H](CCC(N)=O)C(=O)N[C@@H](Cc1c[nH]c2ccccc12)C(=O)N[C@@H](CC(C)C)C(=O)N[C@@H](CCS(C)(=O)=O)C(=O)N[C@@](C)(CC(=O)O)C(=O)N[C@H](C(N)=O)[C@@H](C)O)C(C)C [TP565] (H-H[Aib]QGTFTSDYSKYLDARAAK([AEEA-AEEA-γGlu-C20 diacid])DFVQWL[Met(O2)][αMeD]T-NH2; N-terminus assumed)
5 | 3.0 | CC(C)C[C@H](NC(=O)[C@H](Cc1ccc(O)cc1)NC(=O)[C@H](CCCCN)NC(=O)[C@H](CO)NC(=O)[C@H](Cc1ccc(O)cc1)NC(=O)[C@H](CC(=O)O)NC(=O)[C@H](CO)NC(=O)[C@@H](NC(=O)[C@H](Cc1ccccc1)NC(=O)[C@@H](NC(=O)CNC(=O)[C@H](CCC(N)=O)NC(=O)C(C)(C)NC(=O)[C@@H](N)Cc1c[nH]cn1)[C@@H](C)O)[C@@H](C)O)C(=O)N[C@@H](CC(=O)O)C(=O)N[C@@H](C)C(=O)N[C@@H](CCCNC(=N)N)C(=O)N[C@@H](C)C(=O)N[C@@H](C)C(=O)N[C@@H](CCCCNC(=O)COCCOCCNC(=O)COCCOCCNC(=O)CC[C@H](NC(=O)CCCCCCCCCCCCCCC(=O)O)C(=O)O)C(=O)N[C@@H](CC(=O)O)C(=O)N[C@@H](Cc1ccccc1)C(=O)N[C@H](C(=O)N[C@@H](CCC(N)=O)C(=O)N[C@@](C)(Cc1c[nH]c2ccccc12)C(=O)N[C@@H](CC(C)C)C(=O)N[C@@H](CCS(C)(=O)=O)C(=O)N[C@@H](CC(=O)O)C(=O)N[C@H](C(N)=O)[C@@H](C)O)C(C)C [TP630] (H-H[Aib]QGTFTSDYSKYLDARAAK([AEEA-AEEA-γGlu-C16 diacid])DFVQ[αMeW]L[Met(O2)]DT-NH2; N-terminus assumed)
6 | 1.6 | CC(C)C[C@H](NC(=O)[C@H](Cc1ccc(O)cc1)NC(=O)[C@H](CCCCN)NC(=O)[C@H](CO)NC(=O)[C@H](Cc1ccc(O)cc1)NC(=O)[C@H](CC(=O)O)NC(=O)[C@H](CO)NC(=O)[C@@H](NC(=O)[C@H](Cc1ccccc1)NC(=O)[C@@H](NC(=O)CNC(=O)[C@H](CCC(N)=O)NC(=O)C(C)(C)NC(=O)[C@@H](N)Cc1c[nH]cn1)[C@@H](C)O)[C@@H](C)O)C(=O)N[C@@H](CC(=O)O)C(=O)N[C@@H](C)C(=O)N[C@@H](CCCNC(=N)N)C(=O)N[C@@H](C)C(=O)N[C@@H](C)C(=O)N[C@@H](CCC(N)=O)C(=O)N[C@@H](CC(=O)O)C(=O)N[C@@H](Cc1ccccc1)C(=O)N[C@H](C(=O)N[C@@H](Cc1ccc(CNC(=O)CC[C@H](NC(=O)CCCCCCCCCCCCCCCCC(=O)O)C(=O)O)cc1)C(=O)N[C@@H](Cc1c[nH]c2ccccc12)C(=O)N[C@@H](CC(C)C)C(=O)N[C@@H](CC(C)C)C(=O)N[C@@H](CC(=O)O)C(=O)N[C@H](C(N)=O)[C@@H](C)O)C(C)C [TP639] (H-H[Aib]QGTFTSDYSKYLDARAAQDFV[Phe(4-CH2NH2)]([γGlu-C18 diacid])WLLDT-NH2; N-terminus assumed)
7 | 0.6 | CC(C)C[C@H](NC(=O)[C@H](Cc1ccc(O)cc1)NC(=O)[C@H](CCCCN)NC(=O)[C@H](CO)NC(=O)[C@H](Cc1ccc(O)cc1)NC(=O)[C@H](CC(=O)O)NC(=O)[C@H](CO)NC(=O)[C@@H](NC(=O)[C@H](Cc1ccccc1)NC(=O)[C@@H](NC(=O)CNC(=O)[C@H](CCC(N)=O)NC(=O)C(C)(C)NC(=O)[C@@H](N)Cc1c[nH]cn1)[C@@H](C)O)[C@@H](C)O)C(=O)N[C@@H](CC(=O)O)C(=O)N[C@@H](C)C(=O)N[C@@H](CCCNC(=N)N)C(=O)N[C@@H](C)C(=O)N[C@@H](C)C(=O)N[C@@H](CCCCNC(=O)COCCOCCNC(=O)CC[C@H](NC(=O)CCCCCCCCCCCCCCCCC(=O)O)C(=O)O)C(=O)N[C@@H](CC(=O)O)C(=O)N[C@@H](Cc1ccccc1)C(=O)N[C@H](C(=O)N[C@@H](CCC(N)=O)C(=O)N[C@@H](Cc1c[nH]c2ccccc12)C(=O)N[C@@H](CC(C)C)C(=O)N[C@@H](CCS(C)(=O)=O)C(=O)N[C@@](C)(CC(=O)O)C(=O)N[C@H](C(N)=O)[C@@H](C)O)C(C)C [TP628] (H-H[Aib]QGTFTSDYSKYLDARAAK([AEEA-γGlu-C18 diacid])DFVQWL[Met(O2)][αMeD]T-NH2; N-terminus assumed)
8 | 0.9 | CC(C)C[C@H](NC(=O)[C@H](Cc1ccc(O)cc1)NC(=O)[C@H](CCCCN)NC(=O)[C@H](CO)NC(=O)[C@H](Cc1ccc(O)cc1)NC(=O)[C@H](CC(=O)O)NC(=O)[C@H](CO)NC(=O)[C@@H](NC(=O)[C@H](Cc1ccccc1)NC(=O)[C@@H](NC(=O)CNC(=O)[C@H](CCC(N)=O)NC(=O)C(C)(C)NC(=O)[C@@H](N)Cc1c[nH]cn1)[C@@H](C)O)[C@@H](C)O)C(=O)N[C@@H](CC(=O)O)C(=O)N[C@@H](C)C(=O)N[C@@H](CCCNC(=N)N)C(=O)N[C@@H](C)C(=O)N[C@@H](C)C(=O)N[C@@H](CCC(N)=O)C(=O)N[C@@H](CCCCNC(=O)CCOCCOCCOCCOCCOCCNC(=O)CC[C@H](NC(=O)CCCCCCCCCCCCCCCCC(=O)O)C(=O)O)C(=O)N[C@@H](Cc1ccccc1)C(=O)N[C@H](C(=O)N[C@@H](CCC(N)=O)C(=O)N[C@@H](Cc1c[nH]c2ccccc12)C(=O)N[C@@H](CC(C)C)C(=O)N[C@@H](CCS(C)(=O)=O)C(=O)N[C@@](C)(CC(=O)O)C(=O)N[C@H](C(N)=O)[C@@H](C)O)C(C)C [TP608] (H-H[Aib]QGTFTSDYSKYLDARAAQK([PEG5-γGlu-C18 diacid])FVQWL[Met(O2)][αMeD]T-NH2)
9 | 1.8 | CC(C)C[C@H](NC(=O)[C@H](Cc1ccc(O)cc1)NC(=O)[C@H](CCCCN)NC(=O)[C@H](CO)NC(=O)[C@H](Cc1ccc(O)cc1)NC(=O)[C@H](CC(=O)O)NC(=O)[C@H](CO)NC(=O)[C@@H](NC(=O)[C@H](Cc1ccccc1)NC(=O)[C@@H](NC(=O)CNC(=O)[C@H](CCC(N)=O)NC(=O)C(C)(C)NC(=O)[C@@H](N)Cc1c[nH]cn1)[C@@H](C)O)[C@@H](C)O)C(=O)N[C@@H](CC(=O)O)C(=O)N[C@@H](C)C(=O)N[C@@H](CCCNC(=N)N)C(=O)N[C@@H](C)C(=O)N[C@@H](C)C(=O)N[C@@H](CCC(N)=O)C(=O)N[C@@H](Cc1ccc(CNC(=O)COCCOCCNC(=O)COCCOCCNC(=O)CC[C@H](NC(=O)CCCCCCCCCCCCCCCCC(=O)O)C(=O)O)cc1)C(=O)N[C@@H](Cc1ccccc1)C(=O)N[C@H](C(=O)N[C@@H](CCC(N)=O)C(=O)N[C@@H](Cc1c[nH]c2ccccc12)C(=O)N[C@@H](CC(C)C)C(=O)N[C@@H](CC(C)C)C(=O)N[C@@H](CC(=O)O)C(=O)N[C@H](C(N)=O)[C@@H](C)O)C(C)C [TP443] (H-H[Aib]QGTFTSDYSKYLDARAAQ[Phe(4-CH2NH2)]([AEEA-AEEA-γGlu-C18 diacid])FVQWLLDT-NH2)
